We go through five molecules from US4195022A, “4-Desacetoxy-4α-hydroxyvinblastine and related compounds” (Eli Lilly and Company, priority 1978, dated 1980).

Where a name gives a salt, the structure may show the parent alone.

One series relates to B16 melanoma. As to the kind of experiment: anti-tumor activity against transplanted B16 melanoma in mice (prolongation of survival time). To be noted: B16, intraperitoneal; for toxic: 9.0 mg./kg. × 3 days. In kind it is in vivo. On the procedure:
(§1) The compounds of this invention, as represented by Formula II above, are anti-tumor agents. […] For this determination, a protocol was used which involved the administration of the drug by the intraperitoneal route at a given dose level for 7-10 days after innoculation with the tumor or alternatively, on the first, fifth, and ninth days after innoculation.
(§2) The following table--Table 1--give the results of several experiments in which transplanted tumors in mice were treated successfully with a compound of this invention.
(§3) In the table, column 1 gives the name of the compound; column 2, the transplanted tumor; column 3, the dose level or dose level range and the number of days the dosage was administered; and column 4, the percent inhibition of tumor growth or percent prolongation of survival time, e.g., B16. (GLS is an abbreviation for Gardner lymphosarcoma; CA755 is an adenocarcinoma; and B16 is a melanoma.).

The test system of the next series is CA755 adenocarcinoma. Nature of the series: anti-tumor activity against transplanted adenocarcinoma 755 (CA755) in mice. In kind it is in vivo. The following applies: 755, intraperitoneal, 3.0 mg./kg. × 10 days. As to the method: as §1, §2, §3
In series [1] the test system is Gardner lymphosarcoma (GLS). As to the kind of experiment: anti-tumor activity against transplanted Gardner lymphosarcoma (GLS) in mice. To be noted: intraperitoneal. It is filed as in vivo. On the procedure:
as §1, §2, §3

Series [2] has as its system Chinese hamster ovary cells. As to the kind of experiment: mitotic inhibition in Chinese hamster ovary cells. It is filed as cell-based. The text has this:
The compounds of this invention are mitotic inhibitors in Chinese hamster ovary cells.

The conditions of series [3]: background statement on known alkaloids; result in words; cited from earlier work.

As for `CC[C@]1(O)C[C@@H]2CN(CCc3c([nH]c4ccccc34)[C@@](C(=O)OC)(c3cc4c(cc3OC)N(C)[C@H]3[C@@](O)(C(=O)OC)[C@@H](O)[C@]5(CC)C=CCN6CC[C@]43[C@@H]65)C2)C1` [4-Desacetoxy-4α-hydroxy-vinblastine, 4-Desacetoxy-4α-hydroxyvinblastine], the “Percent Prolongation of Survival Time” value with B16 melanoma (3.0 mg./kg. × 3 days) is reported as 65%; in the series with B16 melanoma (6.0 mg./kg. × 3 days), 90%. Further, the toxic result (in the series on B16 melanoma; in series [1] (6.0 mg./kg. × 10 days)) was “toxic” each time. Further, the “Percent Inhibition of tumor growth” value with CA755 adenocarcinoma came to 38%; in series [1] (1.5 mg./kg. × 10 days, day 7), 35%; in series [1] (1.5 mg./kg. × 10 days, day 11), 25%; in series [1] (3.0 mg./kg. × 10 days, day 7), 91%; in series [1] (3.0 mg./kg. × 10 days, day 11), 78%; in series [1] (6.0 mg./kg. × 10 days, day 7), 100%. Further, the minimal effective concentration in series [2] (Cricetulus griseus, read-out: mitotic inhibition, activity as low as) worked out at 0.01 µg/mL. In addition, the “mitotic inhibition compared with vinblastine sulfate or 4-desacetylvinblastine” value in series [2] (result in words) is given as “roughly corresponding to that seen with either vinblastine sulfate or with 4-desacetylvinblastine”.

Turning to `CC[C@]1(O)C[C@@H]2CN(CCc3c([nH]c4ccccc34)[C@@](C(=O)OC)(c3cc4c(cc3OC)N(C=O)[C@H]3[C@@](O)(C(=O)OC)[C@@H](O)[C@]5(CC)C=CCN6CC[C@]43[C@@H]65)C2)C1` [4-Desacetoxy-4α-hydroxy-vincristine sulfate], the “Percent Inhibition of tumor growth” value in series [1] (1.5 mg./kg. × 10 days, day 7) was 36%; in series [1] (1.5 mg./kg. × 10 days, day 11), 29%; in series [1] (3.0 mg./kg. × 10 days, day 7), 100%; in series [1] (3.0 mg./kg. × 10 days, day 11), 100%; in series [1] (6.0 mg./kg. × 10 days, day 7) it was 100%. Further, the toxic entry in series [1] (6.0 mg./kg. × 10 days) is “toxic”.

Consider `CC[C@]1(O)C[C@@H]2CN(CCc3c([nH]c4ccccc34)[C@@](C(=O)OC)(c3cc4c(cc3OC)N(C)[C@H]3[C@@](O)(C(=O)NN)[C@@H](O)[C@]5(CC)C=CCN6CC[C@]43[C@@H]65)C2)C1` [4-Desacetoxy-4α-hydroxyvinblastine C-3 carboxhydrazide], for which the “Percent Prolongation of Survival Time” value worked out at 67% in the series on B16 melanoma (3.0 mg./kg. × 3 days) and 121% in the series with B16 melanoma (6.0 mg./kg. × 3 days). Also, the toxic entry (in the series with B16 melanoma; in series [1] (6.0 mg./kg. × 10 days)) was “toxic” each time. Also, the “Percent Inhibition of tumor growth” value in series [1] (1.5 mg./kg. × 10 days, day 7) came to 97%; in series [1] (1.5 mg./kg. × 10 days, day 11) it was 98%; in series [1] (3.0 mg./kg. × 10 days, day 7), 100%; in series [1] (3.0 mg./kg. × 10 days, day 11), 100%.

Take `CCC(=O)C[C@@H]1CN(C=O)CCc2c([nH]c3ccccc23)[C@@](C(=O)OC)(c2cc3c(cc2OC)N(C)[C@H]2[C@](O)(C(=O)OC)[C@H](OC(C)=O)[C@]4(CC)C=CCN5CC[C@]32[C@@H]54)C1` [vinamidine]: in series [3], the anti-cancer activity entry was “chemotherapeutically-inactive”.

leurosine N-oxide [pleurosine]: the anti-cancer activity result in series [3] is listed as “loss of anti-cancer activity”.
